Experimental data published in patent US20240115547A1, “PSYCHOTROPIC AGENTS AND USES THEREOF” (LB PHARMACEUTICALS INC., priority 2021, published 2024).
Like-named read-outs stand apart in the source and are kept apart here.

Legend:
[1] = system: Dopamine (e.g., D2/D3); assay: Dopamine RO % by raclopride PET after LB-102, various dosage regimens (Example 3); assay type: in vivo, human; conditions: group mean
[2] = system: dopamine D2/D3; assay: D2/D3 RO by dynamic 11C raclopride PET after oral LB-102 in healthy volunteers (Example 1); assay type: in vivo, human
[3] = Demethylation of LB-102 to amisulpride in preclinical animal models; assay type: in vivo
[4] = PK analysis of LB-102 in healthy human subjects, single and multiple ascending doses (Example 2); assay type: in vivo; conditions: for half-life / Cmax / Tmax: both sexes, plasma, oral
Method: Healthy females and males between 18 and 55 years of age with BMI≥18 and ≤30 kg/m2 were enrolled in the study. Exclusion criteria included: history or presence of psychiatric disorder, drug or alcohol abuse, history of QT prolongation or dysrhythmia, fasting blood glucose level of 126 mg/dL, or a known allergy to the drug or its metabolites. The study was planned as a two part study. Part A was comprised of 5 single ascending dose groups, each of 8 subjects. Part B was comprised of 3 multiple ascending doses, two doses a day for 7 days ([…] doses in total) each of 8 subjects. All subjects were randomized 3:1 drug:placebo. The primary endpoint of the study was safety, with pharmacokinetics as a secondary objective.
Plasma concentrations of LB-102 were obtained as a function of time for single oral administration of LB-102 to human subjects at 10 mg (larger cross), 50 mg (triangle), 100 mg (square), 150 mg (smaller cross), and 200 mg (diamond), respectively, are further provided in FIG. 3.

[5] = 50 mg LB102 oral, 2.5 h after admin
[6] = 50 mg LB102 oral, 7.5 h after admin
[7] = 50 mg LB102 oral, 23.5 h after admin
[8] = 100 mg LB102 oral, 2.5 h after admin
[9] = 100 mg LB102 oral, 7.5 h after admin
[10] = 100 mg LB102 oral, 23.5 h after admin

Q: What does the source list for CCN1CCCC1CNC(=O)c1cc(S(=O)(=O)CC)c(NC)cc1OC (stereo not drawn) [LB-102]?
A: Dopamine RO % (Caudate + Putamen) ([1]; 50 mg SS (once a day for 4 days), 8 h after Day 4 administration): 72%; Dopamine RO % (Caudate + Putamen) ([1]; 75 mg QD, 48 h after LB-102 administration): 37%; Caudate % RO [2, 5]: 26%; Putamen % RO [2, 5]: 22%; Caudate % RO [2, 6]: 43%; Putamen % RO [2, 6]: 36%; Caudate % RO [2, 7]: 50%; Putamen % RO [2, 7]: 39%; Caudate % RO [2, 8]: 48%; Putamen % RO [2, 8]: 42%; Caudate % RO [2, 9]: 77%; Putamen % RO [2, 9]: 71%; Caudate % RO [2, 10]: 74%; Putamen % RO [2, 10]: 67%; dopamine D2/D3 RO in caudate/putamen ([2]; single oral dose of 50 mg, human subjects (FIG. 1A)): about 50%; dopamine D2/D3 RO in caudate/putamen ([2]; single oral dose of 100 mg, human subjects (FIG. 1B)): ~75%; demethylated to amisulpride [3]: up to 50%; AUC0-inf D1 ([4]; 50 mg every 12 hours, D1, mean (SD)): 1012.6 (100.4) ngh/mL; AUC0-inf D7 ([4]; 50 mg every 12 hours, D7, mean (SD)): 2489.1 (312.4) ngh/mL; CL/F ([4]; 50 mg every 12 hours, mean (SD)): 33.8 (3.1) L/h; AUC relative to AUC of 50 mg amisulpride ([4]; 50 mg oral LB-102 vs published 50 mg amisulpride): about 2.5 times; AUC0-inf D1 ([4]; 75 mg every 12 hours, D1, mean (SD)): 1777.9 (309.0) ngh/mL; CL/F ([4]; 75 mg every 12 hours, mean (SD)): 34.9 (8.8) L/h; AUC0-inf D1 ([4]; 100 mg every 12 hours, D1, mean (SD)): 2152.9 (439.9) ngh/mL; accumulation across dose levels ([4]; MAD portion of the study): slight to moderate accumulation; trough concentrations ([4]; MAD portion of the study): plateaued prior to the morning dose on Day 4; half-life ([4]; human, 10 mg, single administration 10 mg, mean (SD), read-out: T1/2 (converted)): 13.7 h; Cmax ([4]; human, 10 mg, single administration 10 mg, mean, read-out: Cmax): 24.1 ng/mL; Tmax ([4]; human, 10 mg, single administration 10 mg, read-out: Tmax): 3 h; Cmax ([4]; human, 50 mg, 50 mg every 12 hours, D1, mean (SD), read-out: Cmax D1): 126 ng/mL; half-life ([4]; human, 50 mg, 50 mg every 12 hours, D1, mean (SD), read-out: T1/2 D1 (converted)): 4.2 h; Tmax ([4]; human, 50 mg, 50 mg every 12 hours, D1, read-out: Tmax D1): 2.5 h; Cmax ([4]; human, 50 mg, 50 mg every 12 hours, D7, mean (SD), read-out: Cmax D7): 224 ng/mL; half-life ([4]; human, 50 mg, 50 mg every 12 hours, D7, mean (SD), read-out: T1/2 D7 (converted)): 14.3 h; Tmax ([4]; human, 50 mg, 50 mg every 12 hours, D7, read-out: Tmax D7): 2.5 h; half-life ([4]; human, 50 mg, single administration 50 mg, mean (SD), read-out: T1/2 (converted)): 11.9 h; Cmax ([4]; human, 50 mg, single administration 50 mg, mean, read-out: Cmax): 176 ng/mL; Tmax ([4]; human, 50 mg, single administration 50 mg, read-out: Tmax): 3 h; Cmax ([4]; human, 75 mg, 75 mg every 12 hours, D1, mean (SD), read-out: Cmax D1): 267 ng/mL; half-life ([4]; human, 75 mg, 75 mg every 12 hours, D1, mean (SD), read-out: T1/2 D1 (converted)): 4 h; Tmax ([4]; human, 75 mg, 75 mg every 12 hours, D1, read-out: Tmax D1): 3 h; Cmax ([4]; human, 75 mg, 75 mg every 12 hours, D7, mean (SD), read-out: Cmax D7): 309 ng/mL; Tmax ([4]; human, 75 mg, 75 mg every 12 hours, D7, read-out: Tmax D7): 2 h; Cmax ([4]; human, 100 mg, 100 mg every 12 hours, D1, mean (SD), read-out: Cmax D1): 325 ng/mL; half-life ([4]; human, 100 mg, 100 mg every 12 hours, D1, mean (SD), read-out: T1/2 D1 (converted)): 4.12 h; Tmax ([4]; human, 100 mg, 100 mg every 12 hours, D1, read-out: Tmax D1): 2.5 h; half-life ([4]; human, 100 mg, single administration 100 mg, mean (SD), read-out: T1/2 (converted)): 14.1 h; Cmax ([4]; human, 100 mg, single administration 100 mg, mean, read-out: Cmax): 348 ng/mL; Tmax ([4]; human, 100 mg, single administration 100 mg, read-out: Tmax): 3 h; half-life ([4]; human, 150 mg, single administration 150 mg, mean (SD), read-out: T1/2 (converted)): 12 h; Cmax ([4]; human, 150 mg, single administration 150 mg, mean, read-out: Cmax): 596 ng/mL; Tmax ([4]; human, 150 mg, single administration 150 mg, read-out: Tmax): 3 h; half-life ([4]; human, 200 mg, single administration 200 mg, mean (SD), read-out: T1/2 (converted)): 13 h; Cmax ([4]; human, 200 mg, single administration 200 mg, mean, read-out: Cmax): 976 ng/mL; Tmax ([4]; human, 200 mg, single administration 200 mg, read-out: Tmax): 3 h; metabolism of LB-102 to amisulpride ([4]; human (FIG. 2)): < 3%; increase of exposure with dose ([4]; oral dosing, human): slightly greater than dose proportional; absorption ([4]; orally dosed, human): rapidly absorbed; AUC0-inf ([4]; single administration 10 mg, mean): 252.6 ngh/mL; CL/F ([4]; single administration 10 mg, mean (SD)): 42.4 (12.6) L/h; AUC0-inf ([4]; single administration 50 mg, mean): 1595.9 ngh/mL; CL/F ([4]; single administration 50 mg, mean (SD)): 31.7 (3.8) L/h; AUC0-inf ([4]; single administration 100 mg, mean): 2809.8 ngh/mL; CL/F ([4]; single administration 100 mg, mean (SD)): 36.6 (6.9) L/h; AUC0-inf ([4]; single administration 150 mg, mean): 4636.6 ngh/mL; CL/F ([4]; single administration 150 mg, mean (SD)): 33.1 (5.3) L/h; AUC0-inf ([4]; single administration 200 mg, mean): 7002.1 ngh/mL; CL/F ([4]; single administration 200 mg, mean (SD)): 28.9 (3.4) L/h; AUC ([4]; single oral administration of 50 mg to human subjects (FIG. 4B)): 1,595 ngh/mL
